Measured values from patent US6395787B1, “Ocular hypotensive lipids” (Allergan Sales, Inc., priority 2000, dated 2002).

Columns and labels:
[1] = tested on: rabbit jugular vein segment; test: Vasorelaxation of histamine precontracted rabbit jugular vein segment
Procedure: Smooth muscle tension of isolated tissues was measured isometrically with force displacement transducers (Grass FT-03) and recorded on Grass Polygraphs (Models 7G and 79E). The organ baths contained Krebs solution maintained at 37° C. and gassed with 95% 02/5% CO2 to give a pH of 7.4. The Krebs solution had the following composition (mM): NaCl, 118.0; KCl, 4.7; KH2PO4, 1.2; CaCl2, 1.9; MgSO4, 1.18; NaHCO3, 25.0; glucose, 11.7; indomethacin, 0.001.
New Zealand albino rabbit of either sex, weighing 2-4 kg, were injected with 1000 U heparin into the marginal ear vein and then sacrificed by CO2 gas. The external jugular veins were cleared of fat and adherent connective tissue and removed. The veins were transected and each ring of 3-4 mm length was suspended between two metal hooks in a jacketed organ bath. The tissues were equilibrated for 1 hr under 0.75 g tension, which was readjusted as the tissues relaxed. Single doses of histamine, 10^−5 M then 2-3×10^−6 M, with washing after each dose, were given to contract the tissue and establish responsiveness. The TP-receptor antagonist SQ29548, (Ogletree et al. (1985) J. Pharmacol. Exp. Ther. 234 435-441) at (10^−6 M), was applied for 5 min and then histamine 2-3×10^−6 M was added to elicit the contractile response. After 30 min of pretreatment with the histamine, the relaxant response was tested by adding cumulative doses of the test compounds with 10^−8 M to 10^−7 M PGE2 at the end of each dose-response curve as a reference. A recovery period of 30-50 min was allowed after wash-out of the tissues. Relaxant activity was calculated as % of the control tone elicited by histamine.

[2] = target: recombinant feline FP receptor (Felis catus, UniProt A0ABI7XJ69); test: Ca2+ signal in HEK-293 cells stably transfected with recombinant feline FP receptor; assay type: cell-based, cat; details: HEK-293 cells, recombinant feline FP receptor; read-out: E.C.50, Ca2+ signal
Procedure: (§1) Human CRL 1497 cells were plated in culture flasks and fed Dulbecco's modified Eagle's medium (DMEM) containing 10% fetal calf serum, 2 mM 1-glutamine, and 0.05 mg/ml gentacin (all purchased from Gibco, Grand Island, N.Y.). Cell cultures were maintained in a humidified atmosphere of 95% air, 5% CO2 and grown to confluency. Cells were removed from the culture flasks by approximately 1 min treatment with trypsin 0.05%/0.53 mM EDTA in Hanks Balanced Salt Solution (HBSS, Gibco, Grand Island, N.Y.) at 37° C. Proteolytic activity was arrested by adding 5 ml of 10% fetal bovine serum in DMEM. The cells were consecutively washed in Hank's BSS and medium containing 140 mM NaCl, […], 1 mM MgCl2, 1.5 mM CaCl2, 10 mM HEPES: TRIS, 5 mM glucose, 5 mM Na pyruvate, 0.1% bovine serum albumin at pH 7.4: Centrifugation for the washes was performed for 15 minutes at 200 g at room temperature. Cells were counted, resuspended in the above medium and incubated with 2×10^−6 M Fura 2/acetoxymethyl ester in a shaking water bath for 30 minutes at 37° C. The cells were subsequently washed in medium as above and resuspended at a concentration of 2×10^6 cells ml^−1. Aliquots of 0.5 ml cell suspension were then added to autocap microtubes to provide 10^6 cells per experimental determination of intracellular free Ca^2+ concentration ([Ca^2+]i).
(§2) Fluorescence was measured in a Perkin-Elmer LS-5 fluorescence spectrophotometer at excitation and emission wavelengths of 340 and 492 nm, respectively, with both slits at 10 nm. For each experimental determination 10^6 cells were washed (200×g for 5 min) and suspended in a 2 ml cuvette with buffer containing 120 mM NaCl, 6 mM KCl, 1 mM MgSO4, 1.5 mM CaCl2, 20 mM HEPES, 1 mg ml^−1 glucose and 1 mg ml^−1 Na pyruvate. Stirring was achieved by an overhead-mounted, paddle stirrer with the temperature maintained at 37° C. The cells were lysed with digitonin (10 μl of 100 mg ml^−1 DMSO) to obtain fmax. EGTA (100 mM) and sufficient 10N NaOH to adjust the pH to 8.5 were then successively added to obtain fmin.
HEK-293 cells were grown in DMEM with 10% fetal bovine serum (FBS), 250 μg ml^−1 G418 (Life Technologies) and 200 μg ml^−1 gentamicin or penicillin/streptomycin. […] For transfection, the cells were grown to 50-60% confluency on 10 cm plates. The plasmid pCEP4 incorporating cDNA inserts for the human FP receptor (20 μg) was added to 500 μl of 250 mM CaCl2. HEPES buffered saline×2 (2×HBSS, 280 mM NaCl, 20 mM HEPES acid, 1.5 mM Na2 HPO4, pH 7.05-7.12) was then added dropwise to a […], with continuous vortexing at room temperature. After 30 min, 9 ml DMEM were added to the mixture. The DNA/DMEM/calcium phosphate mixture was then added to the cells, which had been previously rinsed with 10 ml phosphate buffered saline (PBS). The cells were then incubated for 5 h. at 37° C. in humidified 95% air/5% CO2. The calcium phosphate solution was then removed and the cells were treated with 10% glycerol in DMEM for 2 min. The glycerol solution was then replaced by DMEM with 10% fetal bovine serum (FBS). The cells were incubated overnight and the medium was replaced by DMEM/10% FBS containing 250 μg ml^−1 G418 and penicillin/streptomycin. The following day hygromycin B was added to a final concentration of 200 μg ml^−1.
Ten days after transfection, hygromycin B resistant clones were individually selected and transferred to a separate well on a 24 well plate. […]

human FP receptor = human FP receptor (Homo sapiens, UniProt P43088); test: Ca2+ signal in CRL 1497 cells; assay type: cell-based; set-up: endogenous in cells; host or cells: CRL 1497 human dermal fibroblasts; Δ[Ca^2+]i mean χ ± SEM: unit not given here; details: CRL 1497 cells, n = 4
Procedure: as §1, §2

intraocular pressure = details: prior art research of the assignee; cited from earlier work

Chain of human FP receptor (P43088 whole entry): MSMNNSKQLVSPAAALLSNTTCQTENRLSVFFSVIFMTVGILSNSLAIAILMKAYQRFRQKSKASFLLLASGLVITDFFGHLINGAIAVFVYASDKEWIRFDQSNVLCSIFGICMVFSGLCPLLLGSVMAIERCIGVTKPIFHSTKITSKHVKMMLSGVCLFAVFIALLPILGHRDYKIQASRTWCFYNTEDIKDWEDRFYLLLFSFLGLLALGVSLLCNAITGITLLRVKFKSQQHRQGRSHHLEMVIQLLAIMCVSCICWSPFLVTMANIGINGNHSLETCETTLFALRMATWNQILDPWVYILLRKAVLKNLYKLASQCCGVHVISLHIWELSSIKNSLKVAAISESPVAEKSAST
Chain of recombinant feline FP receptor (A0ABI7XJ69 entry or part of it): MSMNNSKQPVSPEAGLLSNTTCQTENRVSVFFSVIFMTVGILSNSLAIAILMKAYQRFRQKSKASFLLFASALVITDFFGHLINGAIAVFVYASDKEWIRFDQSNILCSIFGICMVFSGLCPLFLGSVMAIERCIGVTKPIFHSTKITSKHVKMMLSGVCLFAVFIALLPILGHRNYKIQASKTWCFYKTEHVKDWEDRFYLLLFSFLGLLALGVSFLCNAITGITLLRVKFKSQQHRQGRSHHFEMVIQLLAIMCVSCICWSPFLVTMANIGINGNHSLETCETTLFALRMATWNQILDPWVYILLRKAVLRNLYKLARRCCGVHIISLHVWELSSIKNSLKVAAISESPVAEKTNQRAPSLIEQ

EC50 ([1]; Oryctolagus cuniculus, histamine precontracted, read-out: E.C.50, vasorelaxation of the precontracted rabbit jugular vein segment)	EC50 [2]	Δ[Ca^2+]i mean χ ± SEM (human FP receptor; 10^−5 M)	Δ[Ca^2+]i mean χ ± SEM (human FP receptor; 10^−6 M)	Δ[Ca^2+]i mean χ ± SEM (human FP receptor; 10^−7 M)	Δ[Ca^2+]i mean χ ± SEM (human FP receptor; 10^−8 M)	Δ[Ca^2+]i mean χ ± SEM (human FP receptor; 10^−9 M)	Structure (SMILES)	endothelium dependent vasorelaxation ([1]; histamine precontracted rabbit jugular vein segment)	intraocular hypotensive activity (intraocular pressure)
5.3 nM	14 nM	136.7 ± 11.2	127.4 ± 7.6	124.1 ± 6.5	47.7 ± 9.4	5.6 ± 2.4	CCCCC[C@H](O)/C=C/[C@@H]1[C@@H](C/C=C\CCCC(=O)O)[C@@H](O)C[C@H]1O [PGF2α, reference compound]	marked vasorelaxation	
							CCNC(=O)CCC/C=C\C[C@@H]1[C@@H](/C=C/[C@@H](O)CCc2ccccc2)[C@H](O)C[C@@H]1O [prior art compound no. 1]		strong intraocular hypotensive activity
							CCCCCC(/C=C/[C@H]1C(O)CC(O)[C@@H]1C/C=C\CCCC(N)=O)OC (stereo partly shown) [prior art compound no. 2]		strong intraocular hypotensive activity
